Assay results from patent US20190015385A1, “VITAMIN E PHOSPHATE OR ACETATE FOR USE IN THE TREATMENT AND PREVENTION OF BIOFILM INFECTIONS” (priority 2016, published 2019).

Key:
[1] = tested on: S. aureus; experiment: MIC and MBC, broth microdilution (Example 3); format: cell-based, Staphylococcus aureus
Description: (§1) This study used clinically relevant strains isolated from patients with prosthetic joint infections at the Microbiology Laboratory of the IRCCS Galeazzi Orthopaedic institute (Italy). In particular, the following were selected: strains of methicillin-resistant Staphylococcus epidermidis, of methicillin-resistant Staphylococcus aureus and of Pseudomonas aeruginosa. These strains were identified beforehand by means of biochemical assays (VITEK® 2 Compact, bioMérieux, Marcy l'Etoile, France) and stored at −80° C. prior to the analysis. Before beginning the study, all strains were screened to assess their ability to produce biofilms, according to the spectrophotometric assay described by Christensen et al. (J Clin Microbiol 1985; 22: 996-1006).
(§2) The bacteriostatic and bactericidal activity of vitamin E acetate and vitamin E phosphate against the above-mentioned bacterial strains was assessed by measuring the minimum inhibitory concentration (MIC) and the minimum bactericidal concentration (MBC). MIC, defined as the lowest concentration capable of inhibiting bacterial growth, was determined using the broth microdilution method according to EUCAST guidelines (http://www.eucast.org/clinical_breakpoints/).
(§3) In short, a suspension in Brain Heart Infusion Broth (BHI; Biomérieux, Marci l'Etoile, France) was prepared for each bacterial strain, with an optical density of 0.5 McFarland (1.5×10^8 CFU/ml). The P. acnes broth was supplemented with 5% defibrinated sheep blood (Liofilchem, Roseto degli Abruzzi, Italy). After a concentration of 10^5 UFC/ml was obtained using appropriate dilutions, each suspension was inoculated in a 96-well microtitre plate containing a two-fold serial dilution of vitamin E acetate (VitE-Ac) and vitamin E phosphate. The controls were performed by inoculating bacterial suspensions in BHI alone. […] After incubation at adequate conditions, MBC was read as the lowest concentration capable of killing 99.9% of the initial inoculum.

[2] = tested on: S. epidermidis; experiment: MIC and MBC, broth microdilution (Example 3); format: cell-based, Staphylococcus epidermidis
Description: as §1, §2, §3

[3] = tested on: S. aureus; experiment: Anti-adhesion activity on coated titanium disks, CFU count (Example 3); format: cell-based, Staphylococcus aureus
Procedure: (§4) Sterile disks of sandblasted titanium with a diameter of 25 mm and a thickness of 5 mm (Adler Ortho, Cormano, Italy) were used as the substrate for the formation of biofilms. The disks were coated with sub-inhibitory concentrations of vitamin E acetate (5 mg/cm^2) or vitamin E phosphate (5 mg/cm^2). The concentrations were selected based on the MIC results. Uncoated disks were used as negative controls. The anti-adhesion activity of vitamin E was assessed against a representative strain for each species. An overnight bacteria culture was resuspended in Brain Heart Infusion Broth (BHI; Biomérieux) at a density of 1.0×10^7 CFU/ml for each strain, and 400 microliters of microbial suspension were inoculated on coated and uncoated disks. The test was performed in triplicate for each strain. After 30, 60 and 120 minutes of incubation, the disks were washed twice with a sterile saline solution to eliminate non-adherent bacteria. The disks were then immersed in 5 ml of a 0.1 w/v % dithiothreitol solution (DTT, Sigma-Aldrich, Milan, Italy) and mechanically stirred for 15 minutes at room temperature. Suitable dilutions of the fluids obtained were inoculated on Tryptic Soy Agar (TSA, Merck) and incubated at 37° C. in an aerobic atmosphere for 24 hours for the CFU count.

[4] = tested on: P. acnes; experiment: MIC and MBC, broth microdilution (Example 3); format: cell-based
Procedure: as §3, with “MIC, defined as the lowest concentration capable of inhibiting bacterial growth, was determined using the broth microdilution method according to EUCAST guidelines (http://www.eucast.org/clinical_breakpoints/). In short,” for “In short,”, “Infusion Broth ([…], France) was” for “Infusion Broth (BHI; Biomérieux, Marci l'Etoile, France) was”, “sheep blood ([…] Abruzzi, Italy).” for “sheep blood (Liofilchem, Roseto degli Abruzzi, Italy).”

[5] = tested on: P. aeruginosa; experiment: Anti-adhesion activity on coated titanium disks, CFU count (Example 3); format: cell-based, Pseudomonas aeruginosa
Procedure: as §4

[6] = tested on: S. epidermidis; experiment: as above; format: cell-based, Staphylococcus epidermidis
Procedure: as §4

[7] = tested on: P. aeruginosa; experiment: MIC and MBC, broth microdilution (Example 3); format: cell-based, Pseudomonas aeruginosa
Description: as §1, §2, §3

[8] = tested on: S. aureus; experiment: Anti-biofilm activity on coated titanium disks, CFU count (Example 3); format: cell-based, Staphylococcus aureus; conditions: 48 hours, 5 mg/cm^2 coating
Procedure: Coated and uncoated titanium disks were prepared as described above and utilized as the substrate for the formation of biofilms. Subsequently, an overnight bacteria culture was resuspended in Brain Heart Infusion Broth (BHI; Biomérieux) at a density of 1.5×10^8 CFU/ml for each strain, and 200 microliters of microbial suspension were inoculated in sterile polystyrene plates with 6 wells containing coated and uncoated disks and 4.8 ml of BHI. The plates were incubated at 37° C. in an aerobic atmosphere for 24 and 48 hours. The test was performed in triplicate for each strain.
At the end of the biofilm incubation time, the disks were treated as described above and the detached cells of the biofilm were inoculated on Tryptic Soy Agar and incubated at 37° C. in an aerobic atmosphere for 24 hours for the CFU count.

[9] = tested on: rats or mice; conditions: rat or mouse; cited from earlier work
[10] = tested on: S. aureus, S. epidermidis, E. coli, P. aeruginosa and C. albicans (all the strains tested); experiment: Antimicrobial activity, MIC by broth microdilution (Example 1); format: cell-based; conditions: mean over all strains tested; VitE diluted in hyaluronic acid; read after 24 hours at 37° C.
Procedure: The microbial strains utilized in this study were isolated from clinical samples collected from bone and soft tissue infections. In particular, strains of S. aureus, S. epidermidis, E. coli, P. aeruginosa and C. albicans were utilized. They were identified beforehand by means of biochemical assays and examined to assess their ability to produce biofilms, according to the spectrometric assay described by Christensen et al. (1985). The microorganisms were stored at −80° C. prior to the analysis. Prior to use, the strains were thawed and cultivated in an appropriate culture medium at 37° C. for 24 h. Antimicrobial activity was assessed by determining the minimum inhibitory concentration (MIC). MIC, defined as the lowest concentration of an antimicrobial substance that inhibits the visible growth of a microorganism, was determined using the broth microdilution method, in accordance with the guidelines of the European Committee on Antimicrobial Susceptibility Testing (EUCAST). […] VitE was diluted in hyaluronic acid (HA) at various concentrations, for which the growth checks were performed by inoculating the microbial suspension in BHI+HA. […] The assay was conducted in duplicate and repeated twice.

[11] = 5 mg/cm^2 coating, 30, 60 and 120 minutes
[12] = 5 mg/cm^2 coating, range over 30, 60 and 120 minutes

Cc1c(C)c2c(c(C)c1OP(=O)([O-])[O-])CC[C@@](C)(CCC[C@H](C)CCC[C@H](C)CCCC(C)C)O2.[Na+].[Na+] [Vitamin E phosphate, α-tocopherol phosphate disodium salt]
bactericidal at the concentrations tested (in words) ([1]; S. aureus): bactericidal | MIC range ([1]; S. aureus strains, 24 hours): 25 to 100 mg/mL | MBC range ([1]; S. aureus strains, kills 99.9% of the initial inoculum): 25 to 200 mg/mL | bactericidal at the concentrations tested (in words) ([2]; S. epidermidis): bactericidal | MIC range ([2]; S. epidermidis strains, 24 hours): 3.13 to 100 mg/mL | MBC range ([2]; S. epidermidis strains, kills 99.9% of the initial inoculum): 25 to 100 mg/mL | decrease in adhesion (in words) [3, 11]: significant decrease | inhibition of adhesion with respect to the control [3, 12]: 60-78% | bactericidal at the concentrations tested (in words) [4]: bactericidal | MIC range ([4]; 48 hours, broth with 5% defibrinated sheep blood): 1.56 to 6.25 mg/mL | MBC range ([4]; kills 99.9% of the initial inoculum): 31.25 to 50 mg/mL | decrease in adhesion (in words) [5, 11]: significant decrease for all the strains tested, with the exception of the last time period tested for P. aeruginosa | inhibition of adhesion with respect to the control [5, 12]: 7-65% | decrease in adhesion (in words) [6, 11]: significant decrease | inhibition of adhesion with respect to the control [6, 12]: 84-95% | bactericidal at the concentrations tested (in words) ([7]; P. aeruginosa): not against P. aeruginosa | MIC range ([7]; P. aeruginosa strains, 24 hours): 100 to 200 mg/mL | MBC range ([7]; P. aeruginosa strains, kills 99.9% of the initial inoculum): >200 mg/mL | biofilm reduction with respect to the controls (in words) [8]: significantly inhibited

vitamin E
LD50 [9]: 4000 mg of vitamin E/kg | mean MIC value [10]: 2.5%
